Assay results from US20240270821A1, “GIP/GLP1/GCG TRI-RECEPTOR AGONISTS AND USES THEREOF” (priority 2023, published 2024).
Like-named read-outs stand apart in the source and are kept apart here. Starred links: 1 amine or outer side, 2 acyl side, 3 side chain; linkers in the order of their positions; H or OH if unused. Non-standard residues stand in square brackets, D forms with d. Groups on a side chain read outwards from the residue. No end group written: not given here. *: point of attachment. C20 diacid = O=C(O)CCCCCCCCCCCCCCCCCCC(=O)*; C18 diacid = O=C(O)CCCCCCCCCCCCCCCCC(=O)*; γGlu = O=C(O)[C@H](CCC(=O)[*:2])N[*:1]; αMe4Pal = C[C@](N)(Cc1ccncc1)C(=O)O; 4Pal = N[C@@H](Cc1ccncc1)C(=O)O; αMeL = CC(C)C[C@](C)(N)C(=O)O; Orn = NCCC[C@H](N)C(=O)O; AEEA = NCCOCCOCC(=O)O; Aib = CC(C)(N)C(=O)O

Columns and labels:
Format in all cases: cell-based
[1] = target: T1, hGIPR (Homo sapiens, UniProt P48546); assay: Functional cAMP activity in the presence of 1% HSA
T1 sequence (P48546 22-466): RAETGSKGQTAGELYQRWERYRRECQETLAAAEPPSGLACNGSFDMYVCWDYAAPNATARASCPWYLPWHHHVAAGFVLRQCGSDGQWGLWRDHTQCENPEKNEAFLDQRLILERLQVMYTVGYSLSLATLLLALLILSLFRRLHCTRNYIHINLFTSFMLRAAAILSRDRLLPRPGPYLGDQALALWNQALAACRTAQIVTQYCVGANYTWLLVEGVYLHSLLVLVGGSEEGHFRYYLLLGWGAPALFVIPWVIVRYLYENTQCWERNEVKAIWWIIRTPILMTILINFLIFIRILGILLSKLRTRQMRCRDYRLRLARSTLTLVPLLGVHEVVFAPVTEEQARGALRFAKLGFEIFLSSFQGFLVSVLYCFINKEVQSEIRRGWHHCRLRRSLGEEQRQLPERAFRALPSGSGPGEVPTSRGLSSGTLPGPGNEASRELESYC

[2] = target: T2, hGLP-1R (Homo sapiens, UniProt P43220); assay: Functional cAMP activity in the presence of 1% HSA
[3] = target: human GcgR (Homo sapiens, UniProt P47871); assay: Functional cAMP activity in the presence of 1% HSA
[4] = target: T1, hGIPR; assay: Functional cAMP activation in the presence of 0.1% casein (no HSA);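 for Relative cAMP EC50, hGIPR: intracellular cAMP rise after 30 min at 37 °C read by HTRF against a standard curve, scaled between buffer alone (0%) and top control ligand concentration (100%), four-parameter fit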;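 for Relative cAMP EC50, hGLP-1R: intracellular cAMP rise after 30 min at 37 °C read by HTRF, normalized between buffer only (0%) and maximal control ligand (100%), four-parameter variable-slope fit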;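 for Relative cAMP EC50, hGcgR: intracellular cAMP rise after 30 min at 37 °C, read by HTRF against a cAMP standard curve, scaled from buffer only (0%) to maximal control ligand response (100%)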
[5] = target: T2, hGLP-1R; assay: as above
[6] = target: hGcgR (Homo sapiens, UniProt P47871); assay: as above;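 note: intracellular cAMP rise after 30 min at 37 °C, read by HTRF against a cAMP standard curve, scaled from buffer only (0%) to maximal control ligand response (100%)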
[7] = target: human GLP1-R (Homo sapiens, UniProt P43220); assay: GLP1-R internalization assay in HEK293 cells; conditions: for Internalization % TOP: normalized to maximum concentration of GLP-1 (100%)
[8] = read-out: cAMP Rel EC50, hGLP-1R
[9] = in the presence of 0.1% casein (no HSA), geometric mean, read-out: Relative cAMP EC50, hGIPR
[10] = in the presence of 0.1% casein (no HSA), geometric mean, read-out: Relative cAMP EC50, hGLP-1R
[11] = in the presence of 0.1% casein (no HSA), geometric mean, read-out: Relative cAMP EC50, hGcgR
[12] = HEK293 cells expressing SNAP-GLP-1R, read-out: GLP1R Internalization EC50

T2 sequence (P43220 24-463): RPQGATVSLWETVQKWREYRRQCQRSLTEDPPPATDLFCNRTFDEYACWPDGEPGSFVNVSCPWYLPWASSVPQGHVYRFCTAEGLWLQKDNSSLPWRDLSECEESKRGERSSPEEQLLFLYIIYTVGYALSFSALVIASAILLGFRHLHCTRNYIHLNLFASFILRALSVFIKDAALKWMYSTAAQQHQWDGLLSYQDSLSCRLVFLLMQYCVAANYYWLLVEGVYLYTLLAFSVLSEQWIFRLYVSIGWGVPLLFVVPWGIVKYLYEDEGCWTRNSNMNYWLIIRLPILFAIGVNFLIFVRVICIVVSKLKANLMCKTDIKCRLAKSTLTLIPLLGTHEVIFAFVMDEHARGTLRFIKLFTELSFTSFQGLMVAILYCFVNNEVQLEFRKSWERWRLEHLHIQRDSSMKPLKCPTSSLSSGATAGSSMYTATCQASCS
human GLP1-R, sequence (P43220 24-463): as above
human GcgR, sequence (P47871 26-477): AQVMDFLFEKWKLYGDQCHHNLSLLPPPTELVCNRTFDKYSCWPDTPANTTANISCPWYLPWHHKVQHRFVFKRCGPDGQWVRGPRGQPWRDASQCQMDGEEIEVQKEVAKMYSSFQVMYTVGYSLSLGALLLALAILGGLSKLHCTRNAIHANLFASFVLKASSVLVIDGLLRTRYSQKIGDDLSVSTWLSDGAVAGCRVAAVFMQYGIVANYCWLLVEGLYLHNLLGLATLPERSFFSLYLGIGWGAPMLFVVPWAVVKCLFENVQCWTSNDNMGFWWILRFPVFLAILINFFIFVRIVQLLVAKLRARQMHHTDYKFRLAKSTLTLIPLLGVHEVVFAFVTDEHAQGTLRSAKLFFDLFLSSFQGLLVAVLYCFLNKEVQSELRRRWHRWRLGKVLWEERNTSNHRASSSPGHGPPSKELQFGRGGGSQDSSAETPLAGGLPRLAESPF
hGcgR, sequence (P47871 26-477): as above

Compound | EC50 ([1]; read-out: cAMP Rel EC50, hGIPR) [nM] | EC50 [2, 8] [nM] | EC50 ([3]; read-out: cAMP Rel EC50, hGcgR) [nM] | EC50 [4, 9] [nM] | EC50 [5, 10] [nM] | EC50 [6, 11] [nM] | EC50 [7, 12] [nM] | Internalization % TOP [7] [%] | EC50 [1] [nM] | EC50 [2] [nM] | EC50 [3] [nM] | EC50 [4] [nM] | EC50 [5] [nM] | EC50 [6] [nM] | EC50 [7] [nM]
H-Y[Aib]QGTFTSDFS[Orn][αMeL]LDKK([AEEA-AEEA-γGlu-C18 diacid])AQ[Aib]AFIEYLLE[Aib]GPSSGEPPPSGT-NH2 [Example 167] | 24.7 | 1300 | 938 | 0.101 | 6.19 | 5.05 | 75.9 | 44.7 | – | – | – | – | – | – | –
CC[C@H](C)[C@H](NC(=O)[C@H](Cc1ccccc1)NC(=O)[C@H](C)NC(=O)C(C)(C)NC(=O)[C@H](CCC(N)=O)NC(=O)[C@H](C)NC(=O)[C@H](CCCCNC(=O)COCCOCCNC(=O)COCCOCCNC(=O)CC[C@H](NC(=O)CCCCCCCCCCCCCCCCC(=O)O)C(=O)O)NC(=O)[C@H](CCCCN)NC(=O)[C@H](CC(=O)O)NC(=O)[C@H](CC(C)C)NC(=O)[C@](C)(CC(C)C)NC(=O)[C@H](CCCN)NC(=O)[C@H](CO)NC(=O)[C@H](Cc1ccccc1)NC(=O)[C@H](CC(=O)O)NC(=O)[C@H](CO)NC(=O)[C@@H](NC(=O)[C@H](Cc1ccccc1)NC(=O)[C@@H](NC(=O)CNC(=O)[C@H](CCC(N)=O)NC(=O)C(C)(C)NC(=O)[C@@H](N)Cc1ccc(O)cc1)[C@@H](C)O)[C@@H](C)O)C(=O)N[C@@H](CCC(=O)O)C(=O)N[C@@H](Cc1ccc(O)cc1)C(=O)N[C@@H](CC(C)C)C(=O)N[C@@H](CC(C)C)C(=O)N[C@@H](CCC(=O)O)C(=O)NC(C)(C)C(=O)NCC(=O)N[C@@H](CCC(=O)O)C(=O)N[C@@H](CO)C(=O)N[C@@H](CO)C(=O)NCC(=O)N[C@@H](C)C(=O)N1CCC[C@H]1C(=O)N1CCC[C@H]1C(=O)N1CCC[C@H]1C(=O)N[C@@H](CO)C(=O)NCC(=O)N[C@@H](CCC(=O)O)C(N)=O [Example 185] | 21.1 | 502 | 504 | 0.123 | 5.46 | 3.5 | 144 | 43.7 | – | – | – | – | – | – | –
H-Y[Aib]QGTFTSDFS[Orn][αMeL]LDKK([AEEA-γGlu-C18 diacid])AQ[Aib]AFIEYLLE[Aib]GPSSG[Aib]PPPSGS-NH2 [Example 239] | 12 | 419 | 693 | 0.0503 | 2.9 | 2.14 | 72.6 | 42.9 | – | – | – | – | – | – | –
H-Y[Aib]QGTFTSDFS[Orn][αMeL]LDKK([AEEA-γGlu-C18 diacid])AQ[Aib]AFIEYLLEGGHSSGAPPPGGS-NH2 [Example 162] | 37.5 | 786 | 558 | 0.222 | 4.72 | 4.72 | 48.8 | 44.8 | – | – | – | – | – | – | –
H-Y[Aib]QGTFTSDFSR[αMeL]LDKK([AEEA-γGlu-C18 diacid])AQ[αMe4Pal]AFIEYLIE[Aib]GESSGAPPPSGE-NH2 [Example 231] | – | – | – | – | – | – | – | 27.7 | 27.4 | 223 | 443 | 0.119 | 1.3 | 2.12 | 36.1
H-Y[Aib]QGTFTSDFS[Orn][αMeL]LDKK([AEEA-γGlu-C18 diacid])AQ[Aib]AFIEWLLEGGHSSGAPPPSGE-NH2 [Example 122] | 32.6 | 468 | 548 | 0.189 | 3.93 | 3.95 | 57.4 | 43.7 | – | – | – | – | – | – | –
H-Y[Aib]QGTFTSDFS[Orn][αMeL]LDKK([AEEA-AEEA-γGlu-C18 diacid])AQ[Aib]AFIEYLLE[Aib]GESSGAPPPSGS-NH2 [Example 179] | 21.3 | 904 | 1440 | 0.104 | 5.81 | 4.82 | 63.4 | 48.4 | – | – | – | – | – | – | –
Y[Aib]QGTFTSDFS[Orn][αMeL]LDKK([AEEA-AEEA-γGlu-C18 diacid])AQ[Aib]AFIEYLLE[dA]GPSSG[4Pal]PPPSGS-NH2 [Example 254] | 21.4 | 265 | 767 | 0.121 | 3.08 | 4.9 | 31.9 | 47.8 | – | – | – | – | – | – | –
H-Y[Aib]QGTFTSDFS[Orn][αMeL]LDKK([AEEA-γGlu-C18 diacid])AQ[Aib]AFIEWLLEGGTSSGAPPPSGE-NH2 [Example 175] | 29.6 | 386 | 579 | 0.218 | 4 | 4.92 | 116 | 49.2 | – | – | – | – | – | – | –
H-Y[Aib]QGTFTSDFSK[αMeL]LDKK([AEEA-γGlu-C18 diacid])AQ[Aib]AFIEYLIEGGPSSGAPPPSEG-NH2 [Example 49] | 44.9 | 151 | 1310 | 0.324 | 0.706 | 5.54 | 37.2 | 53.2 | – | – | – | – | – | – | –
H-Y[Aib]QGTFTSDFS[Orn][αMeL]LDKK([AEEA-γGlu-C18 diacid])AQ[Aib]AFIEWLLEGGSSSGAPPPSGS-NH2 [Example 173] | 49.9 | 293 | 745 | 0.168 | 2.32 | 3.6 | 97.1 | 38.6 | – | – | – | – | – | – | –
H-Y[Aib]QGTFTSDFS[Orn][αMeL]LDKK([AEEA-AEEA-γGlu-C18 diacid])AQ[Aib]AFIEYLLE[Aib]GPSSGEPPPSGS-NH2 [Example 166] | 21 | 1500 | 724 | 0.118 | 6.96 | 3.82 | 74.6 | 44.2 | – | – | – | – | – | – | –
H-Y[Aib]QGTFTSD[4Pal]S[Orn][αMeL]LDKK([AEEA-γGlu-C18 diacid])AQ[Aib]AFIEWLLEGGPSSGEPPPSGE-NH2 [Example 115] | 73.9 | 1460 | 2210 | 0.457 | 7.6 | 10.6 | 255 | 56.5 | – | – | – | – | – | – | –
H-Y[Aib]QGTFTSDFSK[αMeL]LDKK([γGlu-γGlu-C18 diacid])AQ[Aib]AFIEYLLEGGPSSGAPPPSEG-NH2 [Example 58] | 3.75 | 20.7 | 115 | 0.175 | 2.93 | 4.86 | 56.2 | 78.1 | – | – | – | – | – | – | –
H-Y[Aib]QGTFTSDFSK[αMeL]LDKK([AEEA-γGlu-C18 diacid])AQ[Aib]AFIEYLIE[Aib]GESSGAPPPSGE-NH2 [Example 217] | 15 | 130 | 1570 | 0.0897 | 0.667 | 5.11 | 27.6 | 58.2 | – | – | – | – | – | – | –
H-Y[Aib]QGTFTSDFSK[αMeL]LDKK([AEEA-γGlu-C20 diacid])AQ[Aib]AFIEYLLAGGPSSGAPPPGGS-NH2 [Example 16] | 35.9 | 281 | 1660 | 0.217 | 1.54 | 8.84 | 37.8 | 74.6 | – | – | – | – | – | – | –
CC[C@H](C)[C@H](NC(=O)[C@H](Cc1ccccc1)NC(=O)[C@H](C)NC(=O)[C@](C)(Cc1ccncc1)NC(=O)[C@H](CCC(N)=O)NC(=O)[C@H](C)NC(=O)[C@H](CCCCNC(=O)COCCOCCNC(=O)CC[C@H](NC(=O)CCCCCCCCCCCCCCCCC(=O)O)C(=O)O)NC(=O)[C@H](CCCCN)NC(=O)[C@H](CC(=O)O)NC(=O)[C@H](CC(C)C)NC(=O)[C@](C)(CC(C)C)NC(=O)[C@H](CCCNC(=N)N)NC(=O)[C@H](CO)NC(=O)[C@H](Cc1ccccc1)NC(=O)[C@H](CC(=O)O)NC(=O)[C@H](CO)NC(=O)[C@@H](NC(=O)[C@H](Cc1ccccc1)NC(=O)[C@@H](NC(=O)CNC(=O)[C@H](CCC(N)=O)NC(=O)C(C)(C)NC(=O)[C@@H](N)Cc1ccc(O)cc1)[C@@H](C)O)[C@@H](C)O)C(=O)N[C@@H](CCC(=O)O)C(=O)N[C@@H](Cc1ccc(O)cc1)C(=O)N[C@@H](CC(C)C)C(=O)N[C@H](C(=O)N[C@@H](CCC(=O)O)C(=O)NC(C)(C)C(=O)NCC(=O)N[C@@H](CCC(=O)O)C(=O)N[C@@H](CO)C(=O)N[C@@H](CO)C(=O)NCC(=O)N[C@@H](C)C(=O)N1CCC[C@H]1C(=O)N1CCC[C@H]1C(=O)N1CCC[C@H]1C(=O)N[C@@H](CO)C(=O)NCC(=O)N[C@@H](CO)C(N)=O)[C@@H](C)CC [Example 230] | – | – | – | – | – | – | – | 31.2 | 21.6 | 199 | 388 | 0.0909 | 0.937 | 1.61 | 34.4
